The results in this text go back to US11352358B2, “FXR agonist” (XUANZHU BIOPHARMACEUTICAL CO., LTD., priority 2017, dated 2022).

A short description of data set [1]: Liver microsome metabolism stability, human liver microsome. The class given is in vitro ADME. The settings on record: 0.5 mg protein/mL, test sample 1 μM, β-NADPH. Here is the method: (§1) Test samples: the homemade compounds 1, 2, 4 and 5 of the present invention (for their chemical names and preparation methods, see the preparation example for each compound).
(§2) a mixed liver microsomes of SD rat and human both purchased from XenoTech, with batch Nos.: 1410271 (SD rat) and 1410013 (human) respectively, wherein the microsomal protein concentrations both were 20 mg mL^−1;
(§3) experimental promoter β-NADPH purchased from Roche (batch No.: 524F0231); and a phosphate buffer solution (pH 7.4) made in the lab.
(§4) An appropriate amount of the test sample powder was weighed accurately, and dissolved in an appropriate amount of dimethyl sulfoxide (DMSO) to a concentration of 1 mM; and the solution was then diluted by 20 times with methanol to yield a 50 μM working solution.
(§5) (1) According to the proportions in table 3 “Composition of the incubation system for liver microsome metabolism stability experiment” above, for each compound, 6 mL of PBS (100 mM), 0.6 mL of MgCl2 solution (20 mM) and 3.66 mL of H2O were made into a mixed solution 1 for the incubation system (not containing the microsomes, the test sample and β-NADPH).
(§6) (2) Liver microsomes (20 mg protein/mL) were taken from a refrigerator (−80° C.), and were placed on a thermostatic water bath oscillator (37° C.) and pre-incubated for 3 mins.
(§7) (3) For each compound, 1.88 mL of the mixed solution 1 for the incubation system was added with 55 μL of microsomes to obtain a mixed solution 2 for the incubation system (not containing the test sample and β-NADPH).
(§8) (4) Sample group (containing the microsomes and D-NADPH): 616 μL of mixed solution 2 for the incubation system was added with 14 μL of the test sample working solution (with a concentration of 50 μM), and with 70 μL of R-NADPH working solution (10 mM). The resulted solution was well mixed, and the resulted solution was then duplicated. The time points of sampling were at 0 min, 5th min, 10th min, 20th min, 30th min and 60th min.
(§9) (5) Control group (containing the microsomes, and water instead of D-NADPH): 264 μL of mixed solution 2 for the incubation system was added with 6 μL of the test sample working solution (50 μM), and with 30 μL of water. The resulted solution was well mixed, and the resulted solution was then duplicated. The time points of sampling were at 0 min and 60th min.
(§10) (6) 50 μL of sample was taken from an incubating sample tube at each predetermined time point, added to a terminating sample tube (containing 300 μL of cold terminator), and vortexed; and the reaction was terminated.
(§11) (7) after 10 mins of vortexing, the solution was centrifuged for 5 mins (12,000 rpm).
(§12) (8) 100 μL of supernatant was taken and added with 100 μL of water, and the mixture solution was thoroughly vortexed; and the solution was then analyzed by LC-MS/MS.
(§13) Percentages of residual contents were calculated according to the following formula.
Background: Liver microsomes are vesicles of endoplasmic reticulum, rich in cytochrome P450 enzymes.

Data set [2] concerns BSEP mRNA in HepG2 cells. Briefly: Relative expression of BSEP mRNA in HepG2 cells (qPCR), Experimental Example 1. The class given is cell-based, human. The settings on record: 24 hrs, expression under 3 μM of PX-104 as 100%. Here is the method: compounds of the present invention (for their chemical names and preparation methods, see the preparation example of each compound); compound PX-104 and compound 30-70 (for their structures, see the background of the invention, and for their preparation methods, see patent applications WO2011020615A1 and WO2012087519A1).
Cells were digested with pancreatin and collected, and the concentration of the cells was determined; according to the counting result, the cells were resuspended to a density of 7.5×10^5 cells/mL; 2 mL of the cell suspension was inoculated in each well of a 6-well cell culture plate; and the culture plate was placed in an incubator and cultured under the conditions of 37° C. and 5% CO2 for 24 hrs.
The to-be-tested compounds were diluted to 0.3 mM and 3 mM with DMSO; and 5 μL of each stock solution diluted in the previous step was added to 5 mL of medium individually. The concentrations of the obtained working solutions were 0.3 μM and 3 μM respectively. In the control group, medium was prepared by using equivoluminal DMSO instead of the stock solutions; the cell culture plate was taken out from the incubator; the medium was removed from the cell culture plate, and the working solutions and the control medium were added correspondingly; and the culture plate was then put back into the incubator and cultured under the conditions of 37° C. and 5% CO2 for 24 hrs.
after treatment for 24 hrs, the cell culture plate was taken out, and the medium was removed from the plate; the cells were rinsed three times with pre-cooled (4° C.) PBS; and 200 μL of pancreatin (preheated to 37° C.) was added to each well, and the plate was then gently shaken such that the pancreatin could evenly cover the plate bottom. The culture plate was then placed back into the incubator and incubated until the cells were separated from the plate bottom. 1 mL of medium was added to terminate digestion. The solution was gently pipetted and blown for several times with a pipettor, all the substances in each well were pipetted into a 1.5 mL Rnase-free centrifuge tube and centrifuged at 200×g for 5 mins; supernatants were removed to collect cell samples.
Cell lysis: Fresh RNA lysis buffer was prepared (wherein 10 μL of 2-mercaptoethanol was added to 1 mL of lysis buffer); 600 μL of lysis buffer was added to each cell sample; the cells were lysed completely by 1 to 2 mins of vigorous vortexing; the cell lysates were centrifuged at 12,000×g for 5 mins; and the supernatants were transferred to 1.5 mL Rnase-free centrifuge tubes.
Extraction and purification of RNA: An equal amount of 70% ethanol was added to each cell lysate; the centrifuge tubes were then shaken vigorously, and the buffer was mixed sufficiently, so that the particulate precipitates that might be formed after the addition of ethanol were dispersed as even as possible; and adsorption columns were put into collecting tubes, and the mixtures were transferred to the adsorption columns. 700 μL was transferred at most each time; and the solutions were centrifuged at 12,000×g under room temperature for 15 secs. The solutions in the collecting tubes were discarded, and the adsorption columns were put into the collecting tubes once again; and all the remaining mixtures were then transferred into the adsorption columns. 700 μL of eluent I was added to the adsorption column; and the solutions were centrifuged at 12,000×g under room temperature for 15 secs. The adsorption columns were put into new collecting tubes; 500 μL of eluent II was added to the adsorption column; and the solutions were centrifuged at 12,000×g under room temperature for 15 secs. […]

Data set [3] is described as follows: Liver microsome metabolism stability, rat liver microsome. In kind it is in vitro ADME, SD rat. As to conditions: 0.5 mg protein/mL, test sample 1 μM, β-NADPH. Here is the method: as §1, §2, §3, §4, §5, §6, §7, §8, §9, §10, §11, §12, §13

For the compound `COc1cc(C(=O)O)cc2sc(N3C[C@H]4C[C@@H]3C[C@@H]4OCc3c(-c4c(Cl)cccc4Cl)noc3C3CC3)nc12` (racemic) [Compound 1, 2-((RS, 4RS, 5SR)-5-((5-cyclopropyl-3-(2,6-dichlorophenyl)isoxazol-4-yl)methoxy)-2-azabicyclo[2.2.1]heptan-2-yl)-4-methoxybenzo[d]thiazole-6-carboxylic acid], the “Residual content (%) after 60 minutes of incubation” value (shortened to “Residual content (%)”) is given as 49% in data set [1] and 53% in data set [3]. The “relative expression of BSEP mRNA in HepG2 cells” value (“relative expression of BSEP mRNA” below) is on record as 121% in data set [2] (Table 2, 0.3 μM) and 102% in data set [2] (Table 2, 3 μM).

For `O=C(O)c1ccc2nc(N3C[C@H]4C[C@@H]3C[C@@H]4OCc3c(-c4c(Cl)cccc4Cl)noc3C3CC3)sc2c1` (racemic) [Compound 2, 2-((1RS, 4RS, 5SR)-5-((5-cyclopropyl-3-(2,6-dichlorophenyl)isoxazol-4-yl)methoxy)-2-azabicyclo[2.2.1]heptan-2-yl)benzo[d]thiazole-6-carboxylic acid], the “Residual content (%)” value in data set [1] was determined as 55%; in data set [3], 94%. The “relative expression of BSEP mRNA” value in data set [2] (Table 1, 0.3 μM) is 145%; in data set [2] (Table 1, 3 μM), 179%.

For `O=C(O)c1cc(F)c2nc(N3C[C@H]4C[C@@H]3C[C@@H]4OCc3c(-c4c(Cl)cccc4Cl)noc3C3CC3)sc2c1` (racemic) [Compound 4, 2-((1RS, 4RS, 5SR)-5-((5-cyclopropyl-3-(2,6-dichlorophenyl)isoxazol-4-yl)methoxy)-2-azabicyclo[2.2.1]heptan-2-yl)-4-fluorobenzo[d]thiazole-6-carboxylic acid], the “Residual content (%)” value is on record as 54% in data set [1] and 69% in data set [3]. The “relative expression of BSEP mRNA” value in data set [2] (Table 2, 0.3 μM) turned out to be 97%; in data set [2] (Table 2, 3 μM) it was 96%.

As to `Cc1cc(C(=O)O)cc2sc(N3C[C@H]4C[C@@H]3C[C@@H]4OCc3c(-c4c(Cl)cccc4Cl)noc3C3CC3)nc12` (racemic) [Compound 5, 2-((1RS, 4RS, 5SR)-5-((5-cyclopropyl-3-(2,6-dichlorophenyl)isoxazol-4-yl)methoxy)-2-azabicyclo[2.2.1]heptan-2-yl)-4-methylbenzo[d]thiazole-6-carboxylic acid], the “Residual content (%)” value in data set [1] came to 31%; in data set [3] it was 49%. Besides, the “relative expression of BSEP mRNA” value amounted to 103% in data set [2] (Table 2, 0.3 μM) and 123% in data set [2] (Table 2, 3 μM).

Regarding `O=C(O)c1ccc2nc(N3[C@@H]4CC[C@H]3C[C@@H](OCc3c(-c5c(Cl)cccc5Cl)noc3C3CC3)C4)sc2c1` [Compound 30-70, reference compound], the “Residual content (%)” value in data set [1] is listed as 20%. Also, the “relative expression of BSEP mRNA” value is listed as 105% in data set [2] (Table 1, 0.3 μM) and 146% in data set [2] (Table 1, 3 μM).

In the case of `O=C(O)c1ccc(C2CC2c2ccc(OCc3c(-c4c(Cl)cccc4Cl)noc3C3CC3)cc2Cl)cc1` (centres unmarked) [PX-104, reference compound], the “relative expression of BSEP mRNA” value stood at 60% in data set [2] (Table 1, 0.3 μM); 100% in data set [2] (Table 1, 3 μM); 45% in data set [2] (Table 2, 0.3 μM); 100% in data set [2] (Table 2, 3 μM).
